Assay results taken from PubChem BioAssay AID1259407 (Chemical Carcinogenesis Research Information System (CCRIS), 2018).
Active and inactive are the calls of the source. How the calls were made is not given here.

System: CCRIS mutagenicity, Ames/micronucleus/aberration tests
Experiment: CCRIS mutagenicity studies
[1] = Test System: AMES SALMONELLA TYPHIMURIUM, Strain/Indicator: TA98, Metabolic Activation: NONE, Method: PREINCUBATION
[2] = Test System: AMES SALMONELLA TYPHIMURIUM, Strain/Indicator: TA100, Metabolic Activation: NONE, Method: PREINCUBATION
[3] = Test System: AMES SALMONELLA TYPHIMURIUM, Strain/Indicator: TA102, Metabolic Activation: NONE, Method: PREINCUBATION
[4] = Test System: AMES SALMONELLA TYPHIMURIUM, Strain/Indicator: TA98, Metabolic Activation: NONE, Method: STANDARD PLATE

SMILES: CCCC(=O)O
- mutagenic call (Test System: AMES SALMONELLA TYPHIMURIUM, Strain/Indicator: TA97, Metabolic Activation: NONE, Method: PREINCUBATION): inactive; negative
- mutagenic call (Test System: AMES SALMONELLA TYPHIMURIUM, Strain/Indicator: TA97, Metabolic Activation: RAT, LIVER, S-9, AROCLOR 1254, Method: PREINCUBATION): inactive; negative
- mutagenic call [1]: inactive; negative
- mutagenic call (Test System: AMES SALMONELLA TYPHIMURIUM, Strain/Indicator: TA98, Metabolic Activation: RAT LIVER S-9, PHENOBARBITAL AND BETA-NAPHTHOFLAVONE, Method: PREINCUBATION): inactive; negative
- mutagenic call [2]: inactive; negative
- mutagenic call (Test System: AMES SALMONELLA TYPHIMURIUM, Strain/Indicator: TA100, Metabolic Activation: RAT LIVER S-9, PHENOBARBITAL AND BETA-NAPHTHOFLAVONE, Method: PREINCUBATION): inactive; negative
- mutagenic call [3]: inactive; negative
- mutagenic call (Test System: AMES SALMONELLA TYPHIMURIUM, Strain/Indicator: TA102, Metabolic Activation: RAT LIVER S-9, PHENOBARBITAL AND BETA-NAPHTHOFLAVONE, Method: PREINCUBATION): inactive; negative
- mutagenic call (Test System: AMES SALMONELLA TYPHIMURIUM, Strain/Indicator: TA102, Metabolic Activation: RAT, LIVER, S-9, AROCLOR 1254, Method: PREINCUBATION): inactive; negative
- mutagenic call (Test System: AMES SALMONELLA TYPHIMURIUM, Strain/Indicator: TA104, Metabolic Activation: NONE, Method: PREINCUBATION): inactive; negative
- mutagenic call (Test System: AMES SALMONELLA TYPHIMURIUM, Strain/Indicator: TA104, Metabolic Activation: RAT LIVER S-9, PHENOBARBITAL AND BETA-NAPHTHOFLAVONE, Method: PREINCUBATION): inactive; negative
- mutagenic call (Test System: AMES SALMONELLA TYPHIMURIUM, Strain/Indicator: TA1535, Metabolic Activation: NONE, Method: PREINCUBATION): inactive; negative
- mutagenic call (Test System: AMES SALMONELLA TYPHIMURIUM, Strain/Indicator: TA1535, Metabolic Activation: RAT LIVER S-9, PHENOBARBITAL AND BETA-NAPHTHOFLAVONE, Method: PREINCUBATION): inactive; negative
- mutagenic call (Test System: AMES SALMONELLA TYPHIMURIUM, Strain/Indicator: TA1537, Metabolic Activation: NONE, Method: PREINCUBATION): inactive; negative
- mutagenic call (Test System: AMES SALMONELLA TYPHIMURIUM, Strain/Indicator: TA1537, Metabolic Activation: RAT LIVER S-9, PHENOBARBITAL AND BETA-NAPHTHOFLAVONE, Method: PREINCUBATION): inactive; negative
- mutagenic call (Test System: E.COLI, Strain/Indicator: WP2UVRA/PKM101, Metabolic Activation: NONE, Method: PREINCUBATION): inactive; negative
- mutagenic call (Test System: E.COLI, Strain/Indicator: WP2UVRA/PKM101, Metabolic Activation: RAT LIVER S-9, PHENOBARBITAL AND BETA-NAPHTHOFLAVONE, Method: PREINCUBATION): inactive; negative
- mutagenic call (Test System: E.COLI, Strain/Indicator: WP2UVRA, Metabolic Activation: NONE, Method: PREINCUBATION): inactive; negative
- mutagenic call (Test System: E.COLI, Strain/Indicator: WP2UVRA, Metabolic Activation: RAT LIVER S-9, PHENOBARBITAL AND BETA-NAPHTHOFLAVONE, Method: PREINCUBATION): inactive; negative

SMILES: Cc1cccc2nc3c(ccc4ccccc43)cc12
- mutagenic call (Test System: AMES SALMONELLA TYPHIMURIUM, Strain/Indicator: TA97A, Metabolic Activation: NONE, Method: PREINCUBATION): active; positive
- mutagenic call [1]: inactive; negative
- mutagenic call [2]: inactive; negative
- mutagenic call [3]: active; positive

SMILES: C1=Cc2c3c1cccc3cc1ccc3ccccc3c21
- mutagenic call (Test System: AMES SALMONELLA TYPHIMURIUM, Strain/Indicator: TA98, Metabolic Activation: HUMAN, LIVER, MICROSOMES, Method: STANDARD PLATE): active; positive
- mutagenic call (Test System: AMES SALMONELLA TYPHIMURIUM, Strain/Indicator: TA98, Metabolic Activation: RAT, LIVER, HEPATOCYTES, Method: PREINCUBATION): active; positive
- mutagenic call (Test System: AMES SALMONELLA TYPHIMURIUM, Strain/Indicator: TA98, Metabolic Activation: RAT, LIVER, MICROSOMES, AROCLOR 1254, Method: STANDARD PLATE): active; positive
- mutagenic call (Test System: AMES SALMONELLA TYPHIMURIUM, Strain/Indicator: TA98, Metabolic Activation: RAT, LIVER, MICROSOMES, Method: STANDARD PLATE): active; positive
- mutagenic call (Test System: AMES SALMONELLA TYPHIMURIUM, Strain/Indicator: TA98, Metabolic Activation: RAT, LUNG, MICROSOMES, AROCLOR 1254, Method: STANDARD PLATE): active; positive
- mutagenic call (Test System: AMES SALMONELLA TYPHIMURIUM, Strain/Indicator: TA98, Metabolic Activation: RAT, LUNG, MICROSOMES, Method: STANDARD PLATE): inactive; negative
- mutagenic call (Test System: CHINESE HAMSTER OVARY, Strain/Indicator: V-79/6-THIOGUANINE, Metabolic Activation: RAT, LIVER, S-9, AROCLOR 1254, Method: FLASK ASSAY): active; positive
- mutagenic call (Test System: CHINESE HAMSTER OVARY, Strain/Indicator: V-79/6-THIOGUANINE, Metabolic Activation: SHE CELL MEDIATED, Method: FLASK ASSAY): active; positive
- mutagenic call (Test System: CHINESE HAMSTER V-79, Strain/Indicator: V-79/6-THIOGUANINE, Metabolic Activation: RAT, LIVER, S-9, AROCLOR 1254, Method: SUSPENSION/PLATE): active; positive
- mutagenic call (Test System: CHINESE HAMSTER V-79, Strain/Indicator: V-79/6-THIOGUANINE, Metabolic Activation: SHE CELL-MEDIATED, Method: SUSPENSION/PLATE): active; positive
- mutagenic call (Test System: MOUSE LYMPHOMA, Strain/Indicator: L5178Y (TK+/TK-), Metabolic Activation: RAT, LIVER, S-9, AROCLOR 1254, Method: SUSPENSION/PLATE): active; positive
- mutagenic call (Test System: UDS RAT HEPATOCYTES, Strain/Indicator: THY INCORP, Metabolic Activation: NONE, Method: LIQUID SCINTILLATION COUNTING): active; positive

SMILES: Cc1ccc2nc(N)[nH]c2c1
- mutagenic call (Test System: AMES SALMONELLA TYPHIMURIUM, Strain/Indicator: TA98, Metabolic Activation: RAT, LIVER, S-9, AROCLOR 1254, Method: PREINCUBATION): active; positive
- mutagenic call (Test System: AMES SALMONELLA TYPHIMURIUM, Strain/Indicator: TA100, Metabolic Activation: RAT, LIVER, S-9, AROCLOR 1254, Method: PREINCUBATION): inactive; negative

SMILES: O=[N+]([O-])c1cc2c3c(c1)CCc1cc([N+](=O)[O-])cc(c1-3)CC2
- mutagenic call (Test System: AMES SALMONELLA TYPHIMURIUM, Strain/Indicator: TA98(1,8-DNP6), Metabolic Activation: NONE, Method: STANDARD PLATE): active; positive
- mutagenic call (Test System: AMES SALMONELLA TYPHIMURIUM, Strain/Indicator: TA98(NR), Metabolic Activation: NONE, Method: STANDARD PLATE): active; positive
- mutagenic call [4]: active; positive

SMILES: CC(=O)Nc1ccc(-c2ccccc2)cc1
- mutagenic call (Test System: AMES SALMONELLA TYPHIMURIUM, Strain/Indicator: TA98, Metabolic Activation: RAT, LIVER, S-9, KC500 OR PHENOBARBITAL, Method: LIQUID SUSPENSION): active; positive
- mutagenic call (Test System: AMES SALMONELLA TYPHIMURIUM, Strain/Indicator: TA100 (1,8-DNP), Metabolic Activation: MOUSE LIVER S-9, AROCLOR 1254, 10%, Method: PREINCUBATION): active; positive
- mutagenic call (Test System: AMES SALMONELLA TYPHIMURIUM, Strain/Indicator: TA100 (1,8-DNP), Metabolic Activation: RAT LIVER S-9, AROCLOR 1254, 10%, Method: PREINCUBATION): active; positive
- mutagenic call (Test System: AMES SALMONELLA TYPHIMURIUM, Strain/Indicator: TA100, Metabolic Activation: MOUSE LIVER S-9, AROCLOR 1254, 10%, Method: PREINCUBATION): active; positive
- mutagenic call (Test System: AMES SALMONELLA TYPHIMURIUM, Strain/Indicator: TA100, Metabolic Activation: RAT LIVER S-9, AROCLOR 1254, 10%, Method: PREINCUBATION): active; positive
- mutagenic call (Test System: AMES SALMONELLA TYPHIMURIUM, Strain/Indicator: TA100, Metabolic Activation: RAT, LIVER, S-9, KC500 OR PHENOBARBITAL, Method: LIQUID SUSPENSION): active; positive
- mutagenic call (Test System: AMES SALMONELLA TYPHIMURIUM, Strain/Indicator: YG1029, Metabolic Activation: MOUSE LIVER S-9, AROCLOR 1254, 10%, Method: PREINCUBATION): active; positive
- mutagenic call (Test System: AMES SALMONELLA TYPHIMURIUM, Strain/Indicator: YG1029, Metabolic Activation: RAT LIVER S-9, AROCLOR 1254, 10%, Method: PREINCUBATION): active; positive

SMILES: N1=NC2[C@@H]3O[C@@H]3C1[C@H]1O[C@@H]21
- mutagenic call [4]: inactive; negative
- mutagenic call (Test System: AMES SALMONELLA TYPHIMURIUM, Strain/Indicator: TA98, Metabolic Activation: RAT, LIVER, S-9, PHENOBARBITAL, Method: STANDARD PLATE): inactive; negative
- mutagenic call (Test System: AMES SALMONELLA TYPHIMURIUM, Strain/Indicator: TA100, Metabolic Activation: NONE, Method: STANDARD PLATE): inactive; negative
- mutagenic call (Test System: AMES SALMONELLA TYPHIMURIUM, Strain/Indicator: TA100, Metabolic Activation: RAT, LIVER, S-9, PHENOBARBITAL, Method: STANDARD PLATE): inactive; negative
- mutagenic call (Test System: AMES SALMONELLA TYPHIMURIUM, Strain/Indicator: TM677/8-AZAGUANINE, Metabolic Activation: NONE, Method: STANDARD PLATE): inactive; negative
